In PubChem BioAssay AID1850 (Southern Research Specialized Biocontainment Screening …, 2009):
pIC50: −log10 of the molar value. Where “and” joins values, the source holds several entries; their conditions need not be identical. Identical values can stand only once.

Tested on: Salmonella Typhi PhoP-promoter GFP reporter, fluorescence, 4 h
Experiment: Inhibition of PhoP regulon, Salmonella typhi GFP reporter cells, confirmation, 4 h (AID 1850)

Structure (SMILES) | pIC50
Clc1ccc(/C=C/c2ncc[nH]2)c(Cl)c1 | 4.42
CC1CC(C)CN(CCOc2ccc(Cl)cc2Cl)C1 (centres undefined) | 3.95
CCn1nnc(NC(=O)c2ccc([N+](=O)[O-])o2)n1 | 4.28
CCOc1ccc(Nc2nc(N)c3ccccc3n2)cc1 | 4.71
O=C(O)c1sccc1Oc1ccc(F)cc1[N+](=O)[O-] | 4.05
C#CCOCCOCCOCCNc1nc(N2CCN(C(=O)CCCCCCCCCCNC(=O)[C@H]([C@@H](C)CC)n3cc(CCCCN=C(N)N)nn3)CC2)nc(N2CCN(C(=O)CCCCCCCCCCNC(=O)[C@H](CCCCN)n3cc(C)nn3)CC2)n1 | 4.45
CCN1CCN(C(=O)c2cc3cc(F)ccc3[nH]2)CC1 | 3.99
O=C(CSC1=NC(=O)C(c2ccccc2)C(=O)N1)Nc1cccc(Cl)c1 (centres undefined) | 4.36
CO[C@H]1/C=C/O[C@@]2(C)Oc3c(C)c(O)c4c(O)c(c(C=NN5CCN(C)CC5)c(O)c4c3C2=O)NC(=O)/C(C)=C\C=C\[C@H](C)[C@H](O)[C@@H](C)[C@@H](O)[C@@H](C)[C@H](OC(C)=O)[C@@H]1C | 5.01
CCc1cccc2c1Sc1ccccc1CC2N1CCNCC1 (centres undefined) | 4.29
CN1CCN(C(c2ccc(Cl)cc2)c2cc(Cl)c3cccnc3c2O)CC1 (centres undefined) | 4.71
OCCNc1nc(Nc2ccc(Br)cc2)nc2ccccc12 | 5.16
COc1c(N2CCN[C@H](C)C2)c(F)cc2c(=O)c(C(=O)O)cn(C3CC3)c12 | > 6.64
CSc1ccc2c(c1)N(CCC1CCCCN1C)c1ccccc1S2 (centres undefined) | 4.13
C=CCn1c(NS(=O)(=O)c2ccccc2)c(S(=O)(=O)c2ccc(C)cc2)c2nc3ccccc3nc21 | 4.30
O=C(c1cccs1)c1no[n+]([O-])c1C(=O)c1cccs1 | 4.55
CN1CCN(c2nc(Nc3ccc(F)cc3)nc(Nc3ccc(F)cc3)n2)CC1 | 4.09
O=C(Nc1ccc([N+](=O)[O-])cc1Cl)c1cc(Cl)ccc1O | 3.91
CN1CCN(C(c2ccc(Br)cc2)c2cc(Cl)c3cccnc3c2O)CC1 (centres undefined) | 4.17
CCn1cc(C(=O)O)c(=O)c2cc(F)c(N3CCN(C(=S)NC(=O)c4cc(OC)cc(OC)c4)CC3)cc21 | 4.34
OCCNCc1cc(Br)ccc1OCc1ccc(Cl)cc1 | 4.06
O=C(N/N=C/c1cc(Cl)ccc1O)c1cccnc1 | 4.43
O=C1C=CC(=O)N1CCCCCCN1C(=O)C=CC1=O | 4.02
O=C(N/N=C/c1ccccn1)c1ccc(Br)o1 | 4.22
CN(C)CCNc1oc(COc2ccc(-c3ccccc3)cc2)nc1C#N | 4.23
O=C1NCCN1c1ncc([N+](=O)[O-])s1 | 4.39

Structure (SMILES) | pIC50
CCOC(=O)c1c(-c2ccccc2)oc2ccc(OCC(O)CNCCN(C)C)cc12 (centres undefined) | 4.21
CO[C@@]1(NC(=O)Cc2cccs2)C(=O)N2C(C(=O)O)=C(COC(N)=O)CS[C@@H]21 | 5.03
COc1ccc(/C=N/Nc2cc(C)nc3ccccc23)cc1 | 4.98
Cc1c(CCOC(=O)C2C3CC4CC(C3)CC2C4)sc[n+]1CC(=O)c1ccc(Br)cc1 (centres undefined) | 4.46
O=c1ccc2cc3c([nH]c4ccc(Br)cc43)oc-2c1O | 4.62
O=C(N/N=C/c1ccc([N+](=O)[O-])o1)c1ccc(O)cc1 | 4.70
O=C(N/N=C/c1cc(Br)ccc1O)c1ccncc1 | 4.46
C#CCOCCOCCOCCNc1nc(N2CCN(C(=O)CCCCCCCCCCNC(=O)[C@H](CO)n3cc(CCCCCN)nn3)CC2)nc(N2CCN(C(=O)CCCCCCCCCCNC(=O)[C@H](CCCN=C(N)N)n3cc(C[C@@H](C)CC)nn3)CC2)n1 | 4.61
COc1ccc(Nc2cc(C)c3c(O)cccc3n2)cc1 | 4.97
O=c1[nH][nH]c(-c2ccccc2O)c1C(C[N+](=O)[O-])c1ccc(Br)cc1 (centres undefined) | 4.04
O=C(Nc1cccc(Cl)c1)Nc1nccs1 | 4.40
CCCCc1ccc(NC2=NCCCS2)cc1 | 3.85
COc1ccc(/C=C/c2cc[n+](C(=O)Cc3ccccc3)cc2)cc1 | 3.93
CC1(CC(=O)N/N=C/c2cc([N+](=O)[O-])c(O)cc2O)OCCO1 | 4.11
CCCCCCCCCCOC(=O)Cn1c(COc2ccccc2C)[n+](C)c2ccccc21 | 4.88
CN(C)c1ccc(/C=C/c2ccc3ccccc3[n+]2C)cc1 | 4.73
COC(=O)C1C(O)C(C)C(O)C(C)/C=C\C=C(/C)C(=O)Nc2c(C)c(OC(C)=O)c3c(c2O)C(=O)C(C)=C2OCOC(=C23)/C(C)=C/C(C)(O)C(O)C(C)C1O (centres undefined) | 4.60
CCc1cccc2c(C(=O)COC(=O)c3ccc([N+](=O)[O-])s3)c[nH]c12 | 4.73
Cc1ccc(C)c(Nc2cc(C)nc3ccccc23)c1 | 4.29
O=C(CNC(=O)c1cccc(F)c1)N/N=C/c1ccc([N+](=O)[O-])s1 | 4.70
C#CCOCCOCCOCCNc1nc(N2CCN(C(=O)CCCCCCCCCCNC(=O)Cn3cc(C[C@@H](C)O)nn3)CC2)nc(N2CCN(C(=O)CCCCCCCCCCNC(=O)[C@@H]([C@H](C)CC)n3cc(CCCCCN)nn3)CC2)n1 | 3.85
COc1ccc(CNCCC(c2ccccc2)c2ccc3c(c2)OCO3)cc1 (centres undefined) | 4.10
C[C@H]1O[C@@H](n2cc(F)c(=O)[nH]c2=O)[C@H](O)[C@@H]1O | 4.49
COc1cc(CNCCc2ccccc2)cc(Cl)c1OCc1ccccc1 | 4.45
C=CCNc1ncnc2c1[nH]c1ccc(Cl)cc12 | 4.74
C#CCOCCOCCOCCNc1nc(N2CCN(C(=O)CCCCCCCCCCNC(=O)Cn3cc(CCCCCN)nn3)CC2)nc(N2CCN(C(=O)CCCCCCCCCCNC(=O)[C@H]([C@@H](C)CC)n3cc(CCCCCN)nn3)CC2)n1 | 4.41

Structure (SMILES) | pIC50
Cc1cccc(Nc2cc(C)c3c(O)cccc3n2)c1C | 4.76
CC/C(=N\Nc1ccnc2cc(Cl)ccc12)c1ccc(O)cc1 | 4.29
O=[N+]([O-])/C=C/c1cc2ccccc2[nH]1 | 4.02
CO[C@@]1(NC(=O)C2SC(=C(C(N)=O)C(=O)O)S2)C(=O)N2C(C(=O)O)=C(CSc3nnnn3C)CS[C@@H]21 (some centres undefined) | 5.03
CN(C)CCCN(C(=O)CCc1ccccc1)c1nc2ccc(Br)cc2s1 | 4.16
CC(=O)Nc1ccc(S(=O)(=O)NNc2cccc(C)c2)cc1 | 4.41
CN(C)CC/C=C1/c2cc(F)ccc2Sc2ccc(Cl)cc21 | 4.18
c1cnc2c(c1)ccc1cccnc12 | 4.31 and 4.41
C#CCOCCOCCOCCNc1nc(N2CCN(C(=O)CCCCCCCCCCNC(=O)[C@H]([C@@H](C)CC)n3cc(CCCCN=C(N)N)nn3)CC2)nc(N2CCN(C(=O)CCCCCCCCCCNC(=O)[C@H](CO)n3cc(CCCCCN)nn3)CC2)n1 | 4.46
O=C(CCN1CCN(C(=O)c2ccccc2)CC1)c1ccc(Br)cc1 | 3.93
Fc1ccc(Nc2ccnc(Nc3ccc(F)cc3)n2)cc1 | 4.70
NC(=O)c1ccc(N=C2C(=O)Nc3ccc([N+](=O)[O-])cc32)cc1 | 4.46
COc1cc([N+](=O)[O-])cc(/C=N/NC(=O)c2cccnc2)c1O | 4.08
O=[N+]([O-])c1cc(O)c2ncccc2c1 | 4.85
Cc1ccc2c(c1)sc(-c1ccc(N(C)C)cc1)[n+]2C | 4.62
NC1=NC[C@H](Cc2ccccc2)N1CCCCC1CCCCC1 | 4.66
CCCCCCCCCCOC(=O)Cn1c(COc2ccc(Cl)cc2)[n+](C)c2ccccc21 | 4.99
Cc1cccc(Nc2nc(NCc3ccco3)c3ccccc3n2)c1 | 5.31
Cc1ccc(-c2c[n+](CC(=O)Nc3nc(-c4ccccc4)cs3)c3n2CCC3)cc1 | 4.66
CNC[C@H](Cc1ccccc1)NC[C@@H](Cc1cccc2ccccc12)NCCc1ccc(C)cc1 | 4.71
CCN(CC)CCn1c(=N)n(CC(O)COc2cccc(C)c2)c2ccccc21 (centres undefined) | 3.87
Nc1ncncc1-c1ccc(Cl)cc1 | 3.84
Cc1[nH]cnc1C(=O)N/N=C/c1ccc([N+](=O)[O-])s1 | 4.69
CCn1cc(C(=O)O)c(=O)c2cnc(N3CCNCC3)nc21 | 4.59
C=C1c2cccc(O)c2C(O)=C2C(=O)[C@]3(O)C(O)=C(C(N)=O)C(=O)[C@@H](N(C)C)[C@@H]3[C@@H](O)[C@H]12 | 6.25
c1ccc(CN2CCN(c3ncnc4c3[nH]c3ccccc34)CC2)cc1 | 4.42

Structure (SMILES) | pIC50
Cc1ccc(C(=O)N/N=C\c2ccc([N+](=O)[O-])s2)cn1 | 4.73
Cc1cc(C(C)(C)CC(C)(C)C)ccc1OCCOCC[N+](C)(C)Cc1ccccc1 | 4.74
Cc1ccc(Cn2c(=N)n(CC(O)COc3ccccc3)c3ccccc32)cc1 (centres undefined) | 4.28
Oc1ccc(COCc2ccccc2)c2cccnc12 | 4.43
O=C(CCN1CCN(c2ccccc2)CC1)c1ccc(Br)cc1 | 3.98
Cc1cc(NC2CCCCC2)nc(NCc2ccccc2)n1 | 4.47
Cc1ccc(C(=O)N2C(=S)C(c3ccc(F)cc3)=NC23CCN(C)CC3)cc1 | 3.93
CCn1cc(C(=O)NCCO)c(=O)c2cc(F)c(N3CCN(C)CC3)cc21 | 5.03
Cc1ccc(NNS(=O)(=O)c2ccc(C)cc2)cc1 | 4.27
OC(CNCC1CCCO1)Cn1c2ccc(Cl)cc2c2cc(Cl)ccc21 (centres undefined) | 4.45
CCCOc1ccc(C(=O)NNC(=S)NC(=O)c2ccco2)cc1 | 4.13
CC(C(=O)NC1CCS(=O)(=O)C1)N1C(=O)/C(=C/c2ccc(Cl)cc2)SC1=S (centres undefined) | 4.65
O=C(c1ccccc1)c1c2c(cc3sc4ccccc4[n+]13)-c1cccc3cccc-2c13 | 4.45
Cc1ccc2nc(NCc3ccccc3)[nH]c2c1 | 4.21
Oc1ccc(C[C@H]2CNCCN2CCCCC2CCCCC2)cc1 | 4.19
N=c1c2c(-c3ccccc3)c(-c3ccccc3)n(Cc3ccco3)c2ncn1CCCn1ccnc1 | 3.96
Cn1ncnc2c(=O)n(C)c(=O)nc1-2 | 5.89
CCCCCCCCNc1ncnc2ccccc12 | 4.73
Cc1ccc(C(=O)NCCN2C3=NC[C@@H](Cc4ccccc4)N3C[C@H]2Cc2ccc(O)cc2)cc1Br | 4.33
COc1ccc(Nc2ccnc3ccccc23)cc1 | 4.28
O=C(Cn1nc(CNc2ccc(Br)cc2)[n+]2c1CCCCC2)c1ccc([N+](=O)[O-])cc1 | 4.40
O=C1c2cccc3cccc(c23)C(=O)C1(O)O | 4.32
Nc1nonc1-n1nnc(C(=O)N/N=C/c2cc(Br)ccc2O)c1CSC1=NCCS1 | 3.98
COc1cc([N+](=O)[O-])cc(/C=N/NC(=O)CSc2ccccn2)c1O | 3.90
CN1CCN(C2=Cc3cc(Cl)ccc3Sc3cc(F)ccc32)CC1 | 4.35
Cc1occc1C(=O)N/N=C/c1cccs1 | 4.16
